Measured values as given in paper PMC10135569, “Does Enhanced Structural Maturity of hiPSC-Cardiomyocytes Better for the Detection of Drug-Induced Cardiotoxicity?” (Biomolecules, 2023).
Entries after “also recorded” stand apart in the source; their conditions may differ. Like-named read-outs stand apart in the source and are kept apart here.

Columns and labels:
[1] = tested on: hiPSC-CMs (iCell2 Cardiomyocytes) 2D monolayers; experiment: Membrane potential (action potential) recordings with FluoVolt voltage-sensitive dye on the CellOPTIQ platform; assay type: cell-based, human; settings: for effect on APD90: positive control
Experimental: (§1) Cardiomyocytes (FUJIFILM Cellular Dynamics, Madison, WI, USA) were kept at −190 °C and prepared for culture as per the manufacturer’s instructions.
(§2) Standard fibronectin vs. Matrix Plus well coating: The cells were cultured using two different coatings in a humidified incubator at 37 °C with 5% CO2. First, 96-well glass-bottomed plates (MatTek, Ashland, MA) were coated with fibronectin ([…] in PBS supplemented with Ca^2+ and Mg^2+; Sigma, St. Louis, MO, USA) (defining FM). Second, CELLvo^TM Matrix Plus (StemBioSys, San Antonio, TX, USA), which were pre-coated on 96 well glass bottom plates and kept at 4 °C. On the day of plating, CELLvo^TM Matrix Plus plates were transferred to room temperature, rehydrated with phosphate buffer saline (PBS), incubated for 1 h at 37 °C, and washed 2× with PBS. Cells were introduced at a density of 50,000 cells/well to allow the formation of a confluent monolayer in each well (defined as MM). The maintenance protocols followed the manufacturer’s instructions and used the iCell^2 Cardiomyocytes Maintenance media for media changes every 2 days. Experiments were performed between days 5 and 6, as recommended by the manufacturers. Before beginning an experiment, cells were washed in serum-free media (SF media) (Fluorobrite DMEM, Gibco, Thermo Fisher Scientific, Horsham, UK).
(§3) The drug powders were dissolved in DMSO, and four stock concentrations at 1000× the final target concentration were prepared in DMSO. For the experiment, an intermediate concentration 2× the target solution was prepared in SF media. The addition of drugs to the cells was accomplished by replacing 50% of the well volume with the intermediate 2× solution. The same procedure was done for vehicle control using DMSO. The experimental number n = 8/concentration/testing compound in the FM or MM condition, and n = 36 for each positive or negative control in the FM or MM condition.
Cultures of hiPSC-CMs (5–6 days post-plating) were treated with FluoVolt dye (1:1000, Invitrogen, Cat# F10488) in SF media and incubated for 20 min at 37 °C with 5% CO2 and 80% humidity. Multi-well plates were placed in the environmentally controlled stage incubator (37 °C, 5% CO2, water-saturated air atmosphere) (Okolab Inc. Burlingame, CA) of the CellOPTIQ® platform (Clyde Biosciences Ltd., Glasgow, Scotland). The FluoVolt signal was recorded from a 0.2 mm × 0.2 mm area using a 40× (numerical aperture: NA 0.6) Excitation wavelength was 470 ± 10 nm using a light-emitting diode (LED), and emitted light was collected by two photomultipliers (PMTs) at 510–560 nm (channel 1) and 590–650 nm (channel 2), respectively. LED, PMT, and associated power supplies and amplifiers were supplied by Cairn Research Ltd. (Kent, UK) and digitized at 10 kHz and stored on a computer hard drive. In the case of FluoVolt-based action potential recordings, the short wavelength (channel 1, […]) was analyzed for action potential features.
(§4) The dye FluoVolt is loaded into the surface membrane (outer leaflet), and the dye remains within the membrane for many dots, allowing intermittent voltage measurements over the experimental period. In this study, measurements were restricted to within 30 mins of application of the drug. The measurements were made on the same area before/after drug/DMSO addition. […] Baseline spontaneous electrical activity and the associated contractility signal were recorded by capturing 10 s segments of fluorescent signal and video for 2D plates and 15 s for organoids from each well prior to compound addition. Drugs were tested at four concentrations in n = 8 independent replicates (i.e., 8 wells from a single plating) at each concentration. A vehicle control was included for each drug. A 10 s or 15 s recording was then taken 30 min after exposure to the drug or vehicle with only one concentration applied/well.

[2] = tested on: hiPSC-CMs (iCell2 Cardiomyocytes) 2D monolayers; experiment: Contractility measurements using video imaging (ContractilityTool / MUSCLEMOTION); assay type: cell-based, human
Experimental: as §1, §2, §3
as §4, with “applied/well. Offline analysis was performed using proprietary software (CellOPTIQ®).” for “applied/well.”
Short periods (10 s or 15 s) of video were analyzed using the ContractilityTool application (developed by F.L. Burton), which is an implementation of the MUSCLEMOTION algorithm.

[3] = listed in Supplementary Table S1; no reference given; cited from earlier work
[4] = range of concentrations, negative control, FM and MM
[5] = FM monolayer, 0.01 µM, 30 min, delta over DMSO 0.1%
[6] = FM monolayer, 0.1 µM, 30 min, delta over DMSO 0.1%
[7] = FM monolayer, 0.3 µM, 30 min, delta over DMSO 0.1%
[8] = FM monolayer, 1 µM, 30 min, delta over DMSO 0.1%
[9] = MM monolayer, 0.01 µM, 30 min, delta over DMSO 0.1%
[10] = MM monolayer, 0.1 µM, 30 min, delta over DMSO 0.1%
[11] = MM monolayer, 0.3 µM, 30 min, delta over DMSO 0.1%
[12] = MM monolayer, 1 µM, 30 min, delta over DMSO 0.1%

COC(=O)C1=C(C)NC(C)=C(C(=O)OC)C1c1ccccc1[N+](=O)[O-] [Nifedipine]
effect on APD90 ([1]; 100 nM, 2D monolayers on fibronectin and Matrix Plus): shortened; also recorded: reduced | effect on duration of contraction ([2]; 100 nM, 2D monolayers on fibronectin and Matrix Plus, positive control): shortened; also recorded: reduced

O=C(O)COCCN1CCN(C(c2ccccc2)c2ccc(Cl)cc2)CC1 (centres unmarked) [Cetirizine]
activity at 0.1 µM ([1]; Homo sapiens, Cardiomyocyte, 0.5 h, FM monolayer, 0.1 µM, 30 min, delta over DMSO 0.1%, read-out: Trise (%DD)): 154 ± 32.6% | activity at 0.3 µM ([1]; Homo sapiens, Cardiomyocyte, 0.5 h, FM monolayer, 0.3 µM, 30 min, delta over DMSO 0.1%, read-out: Trise (%DD)): 127 ± 16.8% | activity at 3 µM ([1]; Homo sapiens, Cardiomyocyte, 0.5 h, FM monolayer, 3 µM, 30 min, delta over DMSO 0.1%, read-out: Trise (%DD)): 122 ± 8.8% | activity at 0.1 µM ([1]; Homo sapiens, Cardiomyocyte, 0.5 h, MM monolayer, 0.1 µM, 30 min, delta over DMSO 0.1%, read-out: Trise (%DD)): 146 ± 16.9% | change in the voltage parameters [1, 4]: No change | activity at 0.1 µM ([2]; Homo sapiens, Cardiomyocyte, 0.5 h, FM monolayer, 0.1 µM, 30 min, delta over DMSO 0.1%, read-out: CtAmp (%DD)): 72 ± 13.3% | activity at 0.3 µM ([2]; Homo sapiens, Cardiomyocyte, 0.5 h, FM monolayer, 0.3 µM, 30 min, delta over DMSO 0.1%, read-out: CtAmp (%DD)): 87 ± 14.6% | activity at 1 µM ([2]; Homo sapiens, Cardiomyocyte, 0.5 h, FM monolayer, 1 µM, 30 min, delta over DMSO 0.1%, read-out: CtAmp (%DD)): 129 ± 32.9% | activity at 1 µM ([2]; Homo sapiens, Cardiomyocyte, 0.5 h, MM monolayer, 1 µM, 30 min, delta over DMSO 0.1%, read-out: CtAmp (%DD)): 118 ± 14.2% | activity at 3 µM ([2]; Homo sapiens, Cardiomyocyte, 0.5 h, MM monolayer, 3 µM, 30 min, delta over DMSO 0.1%, read-out: CtAmp (%DD)): 87 ± 5.3% | change in the contractility parameters [2, 4]: No change

NC(=Nc1ccc(OCCCCCOc2ccc(N=C(N)c3ccccc3)cc2)cc1)c1ccccc1 [PA-6]
APD30 (%DD) [1, 5]: 108±3.6 %DD | APD90 (%DD) [1, 5]: 104±1.1 %DD | CL (%DD) [1, 5]: 101±0.8 %DD | Trise (%DD) [1, 5]: 101±17.4 %DD | APD30 (%DD) [1, 6]: 99±3 %DD | APD90 (%DD) [1, 6]: 107±1.4 %DD | CL (%DD) [1, 6]: 98±2.3 %DD | Trise (%DD) [1, 6]: 70±6.1 %DD | APD30 (%DD) [1, 7]: 105±2.4 %DD | APD90 (%DD) [1, 7]: 111±0.8 %DD | CL (%DD) [1, 7]: 101±2.5 %DD | Trise (%DD) [1, 7]: 89±10.8 %DD | APD30 (%DD) [1, 8]: 110±1.3 %DD | APD90 (%DD) [1, 8]: 116±1.3 %DD | CL (%DD) [1, 8]: 108±1.4 %DD | Trise (%DD) [1, 8]: 128 ± 15.8 %DD | APD30 (%DD) [1, 9]: 107±1.9 %DD | APD90 (%DD) [1, 9]: 103±1.5 %DD | CL (%DD) [1, 9]: 97±0.7 %DD | Trise (%DD) [1, 9]: 119±25.1 %DD | APD30 (%DD) [1, 10]: 105±1 %DD | APD90 (%DD) [1, 10]: 111±2.2 %DD | CL (%DD) [1, 10]: 100±0.5 %DD | Trise (%DD) [1, 10]: 74±17.9 %DD | APD30 (%DD) [1, 11]: 107±1.9 %DD | APD90 (%DD) [1, 11]: 111±1 %DD | CL (%DD) [1, 11]: 102±0.8 %DD | Trise (%DD) [1, 11]: 96±12.7 %DD | APD30 (%DD) [1, 12]: 107±1.5 %DD | APD90 (%DD) [1, 12]: 111±1.7 %DD | CL (%DD) [1, 12]: 108±2.4 %DD | Trise (%DD) [1, 12]: 138±14.2 %DD | effect on APD90 (in words) ([1]; both FM and MM monolayers, concentration not given): mild APD90 prolongation | effect of selective Kir2.1 channel block ([1]; both experimental groups): lack of effect | CtAmp (%DD) [2, 5]: 103±8.8 %DD | CtD50 (%DD) [2, 5]: 104±1.7 %DD | CtAmp (%DD) [2, 6]: 111±14.2 %DD | CtD50 (%DD) [2, 6]: 105±1.8 %DD | CtAmp (%DD) [2, 7]: 105±10.2 %DD | CtD50 (%DD) [2, 7]: 106±2.1 %DD | CtAmp (%DD) [2, 8]: 111 ± 8.1 %DD | CtD50 (%DD) [2, 8]: 112±2.5 %DD | CtAmp (%DD) [2, 9]: 127±13 %DD | CtD50 (%DD) [2, 9]: 101±1.3 %DD | CtAmp (%DD) [2, 10]: 99±11.2 %DD | CtD50 (%DD) [2, 10]: 103±1.1 %DD | CtAmp (%DD) [2, 11]: 135±22.2 %DD | CtD50 (%DD) [2, 11]: 105±1.9 %DD | CtAmp (%DD) [2, 12]: 114±9.8 %DD | CtD50 (%DD) [2, 12]: 107±1.2 %DD

COCCOC(=O)C1=C(C)NC(C)=C(C(=O)OC(C)C)C1c1cccc([N+](=O)[O-])c1 (centres unmarked) [Nimodipine]
Free Cmax [3]: 69 nM

CN(CCOc1ccc(NS(C)(=O)=O)cc1)CCc1ccc(NS(C)(=O)=O)cc1 [Dofetilide]
effect on APD90 ([1]; 10 nM, both 2D models): significantly prolonged | Free Cmax [3]: 2.7 nM

CC(=O)OCC[N+](C)(C)C [acetylcholine]
effect on beating rate / spontaneous rate (in words) ([1]; both FM and MM, concentration not given): decrease | changes in the APD ([1]; both groups (FM and MM)): < 10%
